Key:
[1] = test system: gastric acid secretion; assay: perfused rat stomach preparation (histamine-stimulated acid secretion, anaesthetised rat); assay type: in vivo; settings: bolus intravenous, maximal reduction in hydrogen-ion concentration as percentage of control, histamine infusion; for inhibition in vivo at 0.5 µmol/kg: dose 0.5 µmole/kg; for inhibition in vivo at 0.2 µmol/kg: dose 0.2 µmole/kg; for inhibition in vivo at 0.1 µmol/kg: dose 0.1 µmole/kg; for inhibition in vivo at 1 µmol/kg: dose 1 µmole/kg
Description: The ability of the compounds of the invention to modify the pH of gastric acid secretion was investigated as follows:
The modified (1) perfused stomach preparation (2) of the urethane (25% solution) anaesthetised rat, maintained at 37°C, allows the continuous measurement of pH during basal and stimulated acid secretion.
The lumen of the stomach of male Wistar rats (approximately 200 g bodyweight) was perfused, via a cannula designed to reduce the dead space of the stomach, with 5% glucose solution (37°C) at the rate of 3 ml/min. The perfusate was forced over the surface of the secretory mucosa only, the antrum being excluded. The effluent then passed over a microflow-type glass pH eletrode via a collecting funnel situated in the non- glandular forestomach.
The secretagogue histamine was administered as a constant intravenous infusion to produce a steady rate of acid secretion. Test compounds were administered in solution as bolus intravenous injections and any effect on the pH of the perfusate noted. The perfusate pH was recorded on a potentiometric recorder and anti-secretory responses were measured in terms of the maximal reduction in hydrogen-ion concentration expressed as a percentage of the control concentration.

[2] = biological target: T1, histamine H2-receptor (Cavia porcellus, UniProt P47747); assay: Guinea-pig isolated atria (antagonism of histamine positive chronotropic response); assay type: cell-based
T1 construct: The atria were dissected free and mounted in a jacketed 5 ml capacity tissue bath; from tissue; host or cells: guinea-pig isolated atria
Description: This test is designed to specifically detect histamine H2-receptor antagonists. Guinea-pigs of either sex, weighing between 250 and 500 g, were killed by cervical dislocation and exsanguination. The heart was removed and placed in cold McEwens solution. The atria were dissected free and mounted in a jacketed 5 ml capacity tissue bath containing McEwens solution maintained at 32 °C and gassed with a 95% oxygen, 5% carbon dioxide gas mixture. Atrial beating was detected by an auxotonic lever and from thence recorded on a Devices MX2 hot wire pen recorder. Atrial rate was derived from the amplified force signal using a Devices Instantaneous Ratemeter and recorded on the MX2 pen recorder. […] To avoid disruption of the tissue by repeated washing, responses to cumulative concentrations of histamine were obtained in the absence (control) and then presence of various concentrations of test compounds. The ability to antagonise histamine mediated positive chronotropic responses of this tissue is believed to be specific for H2-receptor antagonists. Such activity was assessed by examining the ability of test compounds to shift to the right the plotted concentration/response curves to histamine.

[3] = Concentration 7.5 x 10^-8 Molar, 0.075 µM
[4] = Concentration 5 x 10^-7 Molar, 0.5 µM
[5] = Concentration 2.5 x 10^-7 Molar, 0.25 µM

T1 sequence (P47747 whole entry): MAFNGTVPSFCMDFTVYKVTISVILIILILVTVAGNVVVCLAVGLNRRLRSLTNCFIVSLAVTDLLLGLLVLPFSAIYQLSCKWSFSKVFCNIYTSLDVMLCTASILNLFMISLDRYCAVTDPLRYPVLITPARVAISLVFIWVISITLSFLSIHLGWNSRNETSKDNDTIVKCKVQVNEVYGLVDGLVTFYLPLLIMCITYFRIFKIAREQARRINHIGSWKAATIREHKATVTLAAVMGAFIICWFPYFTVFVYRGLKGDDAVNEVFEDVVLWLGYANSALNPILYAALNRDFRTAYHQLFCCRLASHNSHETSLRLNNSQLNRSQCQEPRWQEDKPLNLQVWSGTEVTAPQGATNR

With `O=[N+]([O-])c1cccc2c1C(NCCCOc1cccc(CN3CCCCC3)c1)=NS2(=O)=O` [Example 11, N-[3-(3-piperid-1-ylmethylphenoxy)propyl]-4-nitro-1,2-benzoisothiazole-3-amine-1,1-dioxide] the inhibition in vivo at 0.5 µmol/kg [1] was 100% and the “Activity (Decrease in Histamine Potency)” value ([2]; Concentration 1 x 10^-7 Molar, 0.1 µM) was “Active”.

`O=S1(=O)NC(NCCCOc2cccc(CN3CCCCC3)c2)=Nc2ccccc21` [Example 40, N-[3-(3-{1-piperidylmethyl}phenoxy)propyl]-1,2,4-benzothia-diazine-3-amine-1,1-dioxide] was tested, and the inhibition in vivo at 0.5 µmol/kg [1] was 94%.

For `CN(C)Cc1ccc(CSCCNC2=NS(=O)(=O)c3cccc(N)c32)o1` [Example 2, N^3-[2-(5-dimethylaminomethylfuran-2-ylmethylthio)ethyl]1,2-benzoisothiazole-3,4-diamine-1,1-dioxide], the inhibition in vivo at 0.2 µmol/kg [1] was 100% and the “Activity (Decrease in Histamine Potency)” value [2, 3] was “Active”.

`Nc1cccc2c1C(NCCCOc1cccc(CN3CCCCC3)c1)=NS2(=O)=O` [Example 16, N^3-[3-(3-piperid-1-ylmethylphenoxy)propyl]-1,2-benzoiso-thiazole-3,4-diamine-1,1-dioxide] was tested, and the inhibition in vivo at 0.1 µmol/kg [1] was 100% and the “Activity (Decrease in Histamine Potency)” value [2, 3] was “Active”.

Work on `CN(C)Cc1ccc(CSCCNC2=NS(=O)(=O)c3cc(S(=O)(=O)N(C)C)ccc32)o1` [Example 9, N-[2-(5-Dimethylaminomethylfuran-2-ylmethylthio)ethyl] -6-dimethylsulphamoyl-1,2-benzoisothizaole-3-amine-1,1-dioxide] yielded an inhibition in vivo at 0.1 µmol/kg [1] of 89%.

With `CN(C)Cc1ccc(CSCCNC2=NS(=O)(=O)c3cc([N+](=O)[O-])ccc32)o1` [Example 6] the inhibition in vivo at 1 µmol/kg [1] was 75% and the “Activity (Decrease in Histamine Potency)” value [2, 4] was “Active”.

`CN(C)Cc1ccc(CSCCNC2=NS(=O)(=O)c3cccc([N+](=O)[O-])c32)o1` [Example 1, N-[2-(5-dimethylaminomethylfuran-2-ylmethylthio)ethyl]4-nitro-1,2-benzoisothiazole-3-amine-1,1-dioxide] was tested, and the inhibition in vivo at 0.2 µmol/kg [1] was 87% and the “Activity (Decrease in Histamine Potency)” value ([2]; Concentration 7.5 x 10^-7 Molar, 0.75 µM) was “Active”.

For `CN(C)Cc1ccc(CSCCNC2=NS(=O)(=O)c3cc(Cl)ccc32)o1` [Example 8, N-[2-(5-dimethylaminomethylfuran-2-ylmethylthio)ethyl]-6-chloro-1,2benzoisothiazole-3-amine-1,1-dioxide], the inhibition in vivo at 5 µmol/kg ([1]; dose 5 µmole/kg) was 75% and the “Activity (Decrease in Histamine Potency)” value ([2]; Concentration 1 x 10^-5 Molar, 10 µM) was “Active”.

In the case of `CN(C)Cc1ccc(CSCCNC2=NS(=O)(=O)c3ccccc32)o1` [Example 3, N-[2-(5-dimethylaminomethylfuran-2-ylmethylthio)ethyl]-1,2-benzoisothiazole-3-amine-l,1-dioxide], the inhibition in vivo at 1 µmol/kg [1] is reported as 100% and the “Activity (Decrease in Histamine Potency)” value [2, 4] is reported as “Active”.

For `NC(N)=Nc1nc(CSCCNC2=NS(=O)(=O)c3cccc(N)c32)cs1` [Example 20, N^3-[2-('2-guanidinothiazole-4-ylmethylthio)ethyl]-1,2-benzoisothiazole-3,4-diamine-1,1-dixide], the inhibition in vivo at 0.2 µmol/kg [1] was 100% and the “Activity (Decrease in Histamine Potency)” value [2, 5] was “Active”.

In the case of `CN(C)Cc1cccc(OCCCNC2=NS(=O)(=O)c3ccccc32)c1` [Example 12, N-[3-(3-dimethylaminomethylphenoxy)propyl]-1,2-benzoiso-thiazole-3-amine-1,1-dioxide], the inhibition in vivo at 0.5 µmol/kg [1] is reported as 94% and the “Activity (Decrease in Histamine Potency)” value ([2]; Concentration 1 x 10^-6 Molar) is reported as “Active”.

`CN(C)Cc1ccc(CSCCNC2=NS(=O)(=O)c3c(N)cccc32)o1` [Example 15, N^3-[2-(5-dimethylaminomethylfuran-2-lmethylthio)ethyl]-1,2-benzoisothiazole-3,7-diamine-1,1dioxide] gave an inhibition in vivo at 0.4 µmol/kg ([1]; dose 0.4 µmole/kg) of 60%.

In the case of `N=C(N)Nc1nc(CSCCNC2=NS(=O)(=O)c3cccc([N+](=O)[O-])c32)cs1` [Example 13, N-[2-(2-guanidinothiazol-4-ylmethylthio)ethyl]-4-nitro-1,2-benzoisothiazole-3-amine-1,1-dioxide], the “Activity (Decrease in Histamine Potency)” value ([2]; Concentration 1 x 10^-6 Molar) is reported as “Active”.

Molecule `CN(C)Cc1ccc(CSCCNC2=NS(=O)(=O)c3ccc([N+](=O)[O-])cc32)o1` [Example 5, N-[2-(5-dimethylaminomethylfuran-2-ylmethylthio)ethyl] 5-nitro-1,2-benzoisothizaole-3-amine-1,1-dioxide] has an inhibition in vivo at 2 µmol/kg ([1]; dose 2 µmole/kg) of 80%.

For `CN(C)Cc1ccc(CSCCNC2=NS(=O)(=O)c3cc(N)ccc32)o1` [Example 14, N^3-[2-(5-dimethylaminomethylfuran-2-ylmethylthio)ethyl]-1,2-benzoisothiazole-3,6-diamine-1,1-dioxide], the inhibition in vivo at 0.2 µmol/kg [1] was 60% and the “Activity (Decrease in Histamine Potency)” value [2, 4] was “Active”.

`CN(C)Cc1ccc(CSCCNC2=Nc3ccccc3S(=O)(=O)N2)o1` [Example 39, N-[2-({5-Dimethylaminomethylfuran-2-yl)methylthio)ethyl] 1,2,4-benzothiadiazine-3-amine-1,1-dioxide] was tested, and the inhibition in vivo at 0.5 µmol/kg [1] was 78% and the “Activity (Decrease in Histamine Potency)” value ([2]; Concentration 1 x 10^-6 Molar) was “Active”.

Work on `CN(C)Cc1ccc(CSCCNC2=NS(=O)(=O)c3c2cccc3[N+](=O)[O-])o1` [Example 7, N-2-(5-dimethylamihomethylfuran-2-ylmethylthioethyl] -7-nitro-1,2-benzoisothizaole-3-amine-1,1-dioxide] yielded an inhibition in vivo at 0.5 µmol/kg [1] of 68%.

With `O=S1(=O)N=C(NCCCOc2cccc(CN3CCCCC3)c2)c2ccccc21` [Example 10, N-[3-(3-piperid-1-ylmethylphenoxy)propyl]-1,2-henzoiso-thiazole-3-amine-1,1-dioxide] the inhibition in vivo at 0.5 µmol/kg [1] was 100% and the “Activity (Decrease in Histamine Potency)” value [2, 5] was “Active”.

From patent publication EP0105732A2, “Histamine H2 receptor antagonists of the benzisothiazole amino and benzthiadiazine amino series” (BEECHAM GROUP PLC, priority 1982, dated 1984)
